Values of other authors as cited in patent publication US8586580B2, “2,7-substituted thieno[3,2-d] pyrimidine compounds as protein kinase inhibitors” (Korea Institute of Science and Technology, priority 2009, dated 2013).

Test system: PC-3, BT-474, LoVo, NCI-H460, U-87 MG and BxPC-3 human tumor xenografts
Conditions: in vivo

CN(c1ncccc1CNc1nc(Nc2ccc3c(c2)CC(=O)N3)ncc1C(F)(F)F)S(C)(=O)=O [PF-562271]
toxicity: No special toxicity has been observed
